Results as given in ChEMBL document CHEMBL3860026, “Depsidones from Lichens as Natural Product Inhibitors of M-Phase Phosphoprotein 1, a Human Kinesin Required for Cytokinesis” (J Nat Prod, 2016).
pIC50: −log10 of the molar value.

Experiments:
[1] = biological target: Centromere-associated protein E (Homo sapiens, UniProt Q02224); test: Inhibition of microtubule-stimulated ATPase activity of human CENP-E by pyruvate kinase/lactate dehydrogenase-linked assay
[2] = Intrinsic clearance in human liver microsomes assessed per mg of protein at 3 uM after 5 to 60 mins by LC-MS/MS method; assay type: ADME; conditions: read-out: CLH
[3] = n-octanol-buffer distribution co-efficient, log D of the compound at pH 7.4 by shake flask method; assay type: physicochemical
[4] = Apparent passive permeability of the compound at 10 uM after 5 hrs by PAMPA; assay type: ADME; conditions: pampa, 5 h, 10 µM
[5] = biological target: T1, Kinesin-like protein KIF9 (Homo sapiens) (UniProt Q9HAQ2); test: Inhibition of basal ATPase activity of human Kif9 at 200 uM by pyruvate kinase/lactate dehydrogenase-linked assay
T1 sequence (whole entry): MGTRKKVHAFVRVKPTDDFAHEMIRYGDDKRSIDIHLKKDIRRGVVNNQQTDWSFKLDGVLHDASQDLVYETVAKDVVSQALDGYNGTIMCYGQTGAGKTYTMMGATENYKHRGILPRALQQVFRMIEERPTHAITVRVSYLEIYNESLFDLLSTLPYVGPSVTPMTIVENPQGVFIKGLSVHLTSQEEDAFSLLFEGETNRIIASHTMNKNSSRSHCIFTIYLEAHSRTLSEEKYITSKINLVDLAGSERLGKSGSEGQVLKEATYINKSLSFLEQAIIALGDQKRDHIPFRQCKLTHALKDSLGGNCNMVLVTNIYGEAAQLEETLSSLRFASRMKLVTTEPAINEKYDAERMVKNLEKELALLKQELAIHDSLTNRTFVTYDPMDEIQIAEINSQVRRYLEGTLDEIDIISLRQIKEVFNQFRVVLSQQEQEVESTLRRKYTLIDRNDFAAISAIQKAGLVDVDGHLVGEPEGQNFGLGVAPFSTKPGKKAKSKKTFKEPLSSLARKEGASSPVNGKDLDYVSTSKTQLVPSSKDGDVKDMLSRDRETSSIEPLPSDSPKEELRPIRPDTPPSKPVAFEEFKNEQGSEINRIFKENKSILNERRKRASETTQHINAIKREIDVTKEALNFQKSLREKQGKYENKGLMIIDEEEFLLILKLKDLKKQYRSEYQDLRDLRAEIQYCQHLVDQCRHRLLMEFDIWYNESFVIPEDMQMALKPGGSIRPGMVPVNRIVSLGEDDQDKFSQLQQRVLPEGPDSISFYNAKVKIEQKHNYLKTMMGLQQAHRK

[6] = Half life in human liver microsomes at 3 uM by LC-MS/MS method; assay type: ADME
[7] = biological target: T2, Chromosome-associated kinesin KIF4A (Homo sapiens) (UniProt O95239); test: Inhibition of basal ATPase activity of human Kif4A at 200 uM by pyruvate kinase/lactate dehydrogenase-linked assay
T2 sequence (whole entry): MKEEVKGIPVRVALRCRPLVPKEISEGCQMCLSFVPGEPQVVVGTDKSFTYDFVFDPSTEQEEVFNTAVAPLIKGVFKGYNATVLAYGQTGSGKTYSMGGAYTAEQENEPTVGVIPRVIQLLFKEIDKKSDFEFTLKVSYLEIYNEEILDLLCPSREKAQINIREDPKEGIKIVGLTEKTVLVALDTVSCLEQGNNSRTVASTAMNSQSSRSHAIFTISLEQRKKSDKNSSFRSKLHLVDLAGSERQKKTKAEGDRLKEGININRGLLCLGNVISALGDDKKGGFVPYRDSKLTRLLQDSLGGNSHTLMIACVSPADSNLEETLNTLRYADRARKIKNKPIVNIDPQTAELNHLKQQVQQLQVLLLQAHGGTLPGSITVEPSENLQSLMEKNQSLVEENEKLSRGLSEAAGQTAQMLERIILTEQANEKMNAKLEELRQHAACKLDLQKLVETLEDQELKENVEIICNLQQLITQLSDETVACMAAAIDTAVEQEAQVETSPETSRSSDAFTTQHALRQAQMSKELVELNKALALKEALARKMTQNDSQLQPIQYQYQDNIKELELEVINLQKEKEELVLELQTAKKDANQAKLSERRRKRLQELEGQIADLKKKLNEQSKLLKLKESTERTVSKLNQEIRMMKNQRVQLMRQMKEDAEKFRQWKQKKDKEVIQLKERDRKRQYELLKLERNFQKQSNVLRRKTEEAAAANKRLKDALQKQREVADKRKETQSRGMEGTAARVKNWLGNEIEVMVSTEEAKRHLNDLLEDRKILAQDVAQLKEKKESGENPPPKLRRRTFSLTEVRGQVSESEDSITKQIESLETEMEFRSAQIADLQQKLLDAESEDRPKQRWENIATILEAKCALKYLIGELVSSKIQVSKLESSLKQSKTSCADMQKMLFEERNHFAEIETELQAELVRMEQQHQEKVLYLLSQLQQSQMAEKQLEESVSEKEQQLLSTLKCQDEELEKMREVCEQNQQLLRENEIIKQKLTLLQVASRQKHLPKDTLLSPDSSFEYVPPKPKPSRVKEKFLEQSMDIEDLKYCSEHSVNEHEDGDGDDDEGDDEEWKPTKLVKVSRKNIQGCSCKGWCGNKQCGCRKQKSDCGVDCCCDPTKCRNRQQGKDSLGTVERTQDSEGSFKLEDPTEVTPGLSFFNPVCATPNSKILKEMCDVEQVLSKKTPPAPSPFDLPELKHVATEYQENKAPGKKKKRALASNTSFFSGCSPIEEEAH

Centromere-associated protein E, sequence (Q02224 whole entry): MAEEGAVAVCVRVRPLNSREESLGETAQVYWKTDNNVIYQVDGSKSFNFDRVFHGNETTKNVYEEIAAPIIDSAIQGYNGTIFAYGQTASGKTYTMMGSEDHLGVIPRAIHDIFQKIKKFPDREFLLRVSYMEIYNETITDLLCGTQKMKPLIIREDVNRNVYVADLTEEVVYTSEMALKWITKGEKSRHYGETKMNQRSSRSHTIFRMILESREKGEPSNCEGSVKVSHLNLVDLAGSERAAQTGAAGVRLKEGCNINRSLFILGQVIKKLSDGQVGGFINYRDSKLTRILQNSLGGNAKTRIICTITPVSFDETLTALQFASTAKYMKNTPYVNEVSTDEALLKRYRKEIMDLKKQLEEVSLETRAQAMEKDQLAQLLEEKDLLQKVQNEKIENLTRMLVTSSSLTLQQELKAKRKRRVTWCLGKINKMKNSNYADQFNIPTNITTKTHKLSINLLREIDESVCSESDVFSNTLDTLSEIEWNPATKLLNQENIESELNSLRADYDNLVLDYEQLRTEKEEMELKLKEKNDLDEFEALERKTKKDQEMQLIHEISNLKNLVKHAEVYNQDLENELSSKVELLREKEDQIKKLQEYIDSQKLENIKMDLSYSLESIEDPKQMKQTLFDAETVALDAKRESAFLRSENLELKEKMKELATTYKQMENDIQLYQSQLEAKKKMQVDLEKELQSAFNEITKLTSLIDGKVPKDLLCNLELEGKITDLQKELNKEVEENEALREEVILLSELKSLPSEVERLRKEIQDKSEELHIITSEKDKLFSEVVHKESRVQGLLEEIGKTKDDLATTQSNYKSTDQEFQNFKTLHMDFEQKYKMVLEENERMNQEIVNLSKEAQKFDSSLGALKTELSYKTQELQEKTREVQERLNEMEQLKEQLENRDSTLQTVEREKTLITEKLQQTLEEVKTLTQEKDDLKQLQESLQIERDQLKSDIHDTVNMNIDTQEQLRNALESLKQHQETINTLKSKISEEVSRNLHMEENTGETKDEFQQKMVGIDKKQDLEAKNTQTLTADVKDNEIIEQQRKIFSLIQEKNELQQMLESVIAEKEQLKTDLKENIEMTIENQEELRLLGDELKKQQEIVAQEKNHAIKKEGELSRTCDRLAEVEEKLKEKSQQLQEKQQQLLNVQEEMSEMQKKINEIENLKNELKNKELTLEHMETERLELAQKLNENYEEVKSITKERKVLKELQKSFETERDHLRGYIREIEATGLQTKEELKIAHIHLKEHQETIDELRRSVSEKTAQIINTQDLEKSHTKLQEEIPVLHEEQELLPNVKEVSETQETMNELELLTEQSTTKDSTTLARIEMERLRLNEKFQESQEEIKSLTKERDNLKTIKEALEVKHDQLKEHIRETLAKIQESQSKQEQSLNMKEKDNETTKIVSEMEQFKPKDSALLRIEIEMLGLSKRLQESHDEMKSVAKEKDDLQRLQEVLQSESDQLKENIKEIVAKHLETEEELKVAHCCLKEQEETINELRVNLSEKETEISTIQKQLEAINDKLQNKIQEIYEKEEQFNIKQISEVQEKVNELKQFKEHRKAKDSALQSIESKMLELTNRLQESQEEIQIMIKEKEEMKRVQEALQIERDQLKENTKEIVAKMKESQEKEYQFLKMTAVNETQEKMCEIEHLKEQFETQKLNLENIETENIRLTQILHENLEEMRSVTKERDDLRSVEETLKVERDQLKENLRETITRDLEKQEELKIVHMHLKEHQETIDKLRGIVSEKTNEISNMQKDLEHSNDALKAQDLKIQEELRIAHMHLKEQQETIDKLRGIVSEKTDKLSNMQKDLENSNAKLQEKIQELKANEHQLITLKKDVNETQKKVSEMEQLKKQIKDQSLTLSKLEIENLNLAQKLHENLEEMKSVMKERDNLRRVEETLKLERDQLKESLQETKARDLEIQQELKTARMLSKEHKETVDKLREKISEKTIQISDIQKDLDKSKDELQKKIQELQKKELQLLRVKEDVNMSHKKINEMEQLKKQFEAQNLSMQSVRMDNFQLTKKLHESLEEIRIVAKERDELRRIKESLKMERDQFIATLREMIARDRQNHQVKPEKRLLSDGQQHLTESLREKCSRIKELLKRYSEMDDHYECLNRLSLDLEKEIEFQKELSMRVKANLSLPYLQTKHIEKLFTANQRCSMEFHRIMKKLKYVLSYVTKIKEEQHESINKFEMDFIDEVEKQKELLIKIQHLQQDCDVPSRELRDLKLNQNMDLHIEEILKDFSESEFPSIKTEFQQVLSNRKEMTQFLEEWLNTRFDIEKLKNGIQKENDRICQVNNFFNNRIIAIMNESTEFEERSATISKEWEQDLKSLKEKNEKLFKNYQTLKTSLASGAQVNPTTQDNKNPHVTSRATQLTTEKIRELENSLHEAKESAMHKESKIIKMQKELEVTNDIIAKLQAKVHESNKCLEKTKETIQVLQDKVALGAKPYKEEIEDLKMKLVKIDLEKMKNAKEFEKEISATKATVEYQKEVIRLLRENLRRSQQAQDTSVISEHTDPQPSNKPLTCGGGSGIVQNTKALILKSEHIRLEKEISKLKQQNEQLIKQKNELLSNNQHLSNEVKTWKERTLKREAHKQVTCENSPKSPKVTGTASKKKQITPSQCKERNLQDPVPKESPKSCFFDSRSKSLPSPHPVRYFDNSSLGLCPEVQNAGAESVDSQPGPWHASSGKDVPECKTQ

Which results are given for CCCCCC(=O)Cc1cc(O)cc2c1C(=O)Oc1cc(O)c(C(=O)O)c(CCCCC)c1O2 [PHYSODIC ACID]?
pIC50 [1]: 4.04; microsomal CLint at 3 µM [2]: 310 µL/min/mg; logD [3]: 3; Papp [4]: Impermeable; inhibition [5]: 40%; half-life at 3 µM [6]: 4.5 min; inhibition [7]: 40%
